Results on 14 compounds are retold here after PMC11576293, “New series of 4,6-diaryl pyrimidines: facile synthesis and antiproliferative activity as dual EGFR/VEGFR-2 inhibitors” (Frontiers in Chemistry, 2024).

As usually defined, the inhibition is the share of the control response that was lost under treatment.

“And” between values parts separate entries of the source, which are not always exact repeats. Equal values may be shown once.

Data set [1] deals with SK-MEL-2. The data set is described as follows: NCI-60 single-dose screen. In kind it is cell-based. As to conditions: Homo sapiens, single dose 10 µM, '-' = no inhibition, read-out: % Growth Inhibition. The essentials:
(§1)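 Single concentration (10 μM) per compound, assayed by the NCI DTP against its 60-line panel covering leukemia, lung, colon, CNS, melanoma, ovarian, renal, prostate and breast cancers.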

Data set [2] deals with HCT-116. The data set is described as follows: NCI-60 single-dose screen. In kind it is cell-based. The conditions noted are these: Homo sapiens, single dose 10 µM, '-' = no inhibition, read-out: % Growth Inhibition. The essentials:
as §1

The subject of data set [3] is MDA-MB-435. The data set can be described thus: NCI-60 single-dose screen. It is filed as cell-based. As to conditions: Homo sapiens, single dose 10 µM, '-' = no inhibition, read-out: % Growth Inhibition. The method, boiled down:
as §1

In data set [4] the test system is K-562. The data set is described as follows: NCI-60 single-dose screen. In kind it is cell-based. As to conditions: Homo sapiens, K562, single dose 10 µM, '-' = no inhibition, read-out: % Growth Inhibition. The method, boiled down: as §1
In data set [5] the test system is SN12C. The data set is described as follows: NCI-60 single-dose screen. It is filed as cell-based. The conditions noted are these: Homo sapiens, single dose 10 µM, '-' = no inhibition, read-out: % Growth Inhibition. The essentials:
as §1

Data set [6] has as its system CCRF-CEM. The data set is described as follows: NCI-60 single-dose screen. As to conditions: Homo sapiens, single dose 10 µM, '-' = no inhibition, read-out: % Growth Inhibition. In kind it is cell-based. The essentials: as §1
For data set [7], the system named is OVCAR-8. The data set can be described thus: NCI-60 single-dose screen. In kind it is cell-based. As to conditions: Homo sapiens, single dose 10 µM, '-' = no inhibition, read-out: % Growth Inhibition. The essentials:
as §1

Data set [8] is described as follows: Experimental lipophilicity by RP-TLC. The conditions noted are these: for Experimental lipophilicity RMo: MeOH/water mobile phase; for Experimental lipophilicity Co: concentration of MeOH at RM = 0, in % (unit assumed). In kind it is physicochemical. The text has this:
The RP-TLC method was used to measure the lipophilicity parameters (RMo, b, and Co) described in the experimental section. The mobile phase consisted of different proportions of water and organic modifier (MeOH). RF and RM values were obtained for each ratio of organic modifier/water system (Supplementary Table S3), and a linear regression analysis was achieved to obtain the lipophilicity chromatographic descriptors (RMo, b, and Co, see Table 6). Relative lipophilicity (RMo) describes the partitioning of the solute between pure water and nonpolar stationary phase. In contrast, the second lipophilicity parameter (Co) represents the concentration of organic modifier in the mobile phase in which the solute is equally distributed between two phases (i.e., RM = 0, and Rf = 0.5). Also, Co is known to be widely used in QSAR analysis as it embraces both the specific hydrophobic surface area of the solute and RMo. […] Finally, the slope of the regression line (b) was used as a descriptor of the specific hydrophobic surface area of the compound. In a series of structurally related compounds, b is linearly correlated with RMo, resulting in a linear relationship that is the basic feature of the chromatographic determination of lipophilicity. […] Moreover, substituents affected tested compounds’ measured lipophilicity parameter (RMo) values. Higher RMo values were found with lipophilic derivatives containing the benzyl group (14, 22, and 28), while lower RMo values were found with derivatives containing alkyl or allyl groups (19, 26, and 27). An interesting contradiction was found with experimental lipophilicity value of 28 and its congener 14, where compound 28 was found more lipophilic than its congener 14 even though it contains two methoxy groups and according to ChemDraw® and MolSoft® programs, derivative 14 should be more lipophilic while the MOE® program expects values matching our findings. […] Also, S-allyl derivatives were nearly equipotent to S-alkyl congeners as antiproliferative agents but quite different in terms of lipophilicity.

In the case of `COc1ccc(-c2cc(-c3ccc(Cl)cc3)nc(SC)n2)cc1` [Compound 9, 4-(4-Chlorophenyl)-6-(4-methoxyphenyl)-2-(methylthio)pyrimidine], the inhibition at 10 µM in data set [1] was below 0%; in data set [2], 5.47%; in data set [3] it was 1.45%; in data set [4] it was 18.6%; in data set [5], 11.2%; in data set [6], 0.1%. Besides, the inhibition at 10 µM in data set [7] worked out at 11%.

With `CCSc1nc(-c2ccc(Cl)cc2)cc(-c2ccc(OC)cc2)n1` [Compound 10, 4-(4-Chlorophenyl)-2-(ethylthio)-6-(4-methoxyphenyl)pyrimidine], the inhibition at 10 µM in data set [1] is 6.03%; in data set [2] it was 4.3%; in data set [3], 8.38%; in data set [4], 11.5%; in data set [5] it was 0.46%; in data set [6], below 0%. In addition, the inhibition at 10 µM in data set [7] was below 0%.

As for `CCCSc1nc(-c2ccc(Cl)cc2)cc(-c2ccc(OC)cc2)n1` [Compound 11, 4-(4-Chlorophenyl)-6-(4-methoxyphenyl)-2-(propylthio)pyrimidine], the inhibition at 10 µM in data set [1] was 7.18%; in data set [2] it was below 0%; in data set [3], 1.63%; in data set [4], 6.55%; in data set [5], 6.25%; in data set [6] it was 1.71%. In data set [7], the inhibition at 10 µM stood at 2.49%.

Regarding `COc1ccc(-c2cc(-c3ccc(Cl)cc3)nc(SC(C)C)n2)cc1` [Compound 12, 4-(4-Chlorophenyl)-2-(isopropylthio)-6-(4-methoxyphenyl)pyrimidine], the inhibition at 10 µM in data set [1] is 19.5%; in data set [2] it was 19.6%; in data set [3], 8.92%; in data set [4] it was 30.9%; in data set [5], 19.8%; in data set [6] it was 24.1%. Also, in data set [7], the inhibition at 10 µM was determined as 11.3%.

Turning to `C=CCSc1nc(-c2ccc(Cl)cc2)cc(-c2ccc(OC)cc2)n1` [Compound 13, 2-(Allylthio)-4-(4-chlorophenyl)-6-(4-methoxyphenyl)pyrimidine], the inhibition at 10 µM in data set [1] turned out to be 4.96%; in data set [2], 5.47%; in data set [3] it was 5.34%; in data set [4], 15.6%; in data set [5], 6.62%; in data set [6], 3.79%. The inhibition at 10 µM in data set [7] was below 0%.

For the compound `COc1ccc(CSc2nc(-c3ccc(Cl)cc3)cc(-c3ccc(OC)cc3)n2)cc1` [Compound 15, 2-(4-Methoxybenzylthio)-4-(4-chlorophenyl)-6-(4-methoxyphenyl)pyrimidine], the inhibition at 10 µM is below 0% in data set [1]; below 0% in data set [2]; 2.38% in data set [3]; 12.8% in data set [4]; 11.3% in data set [5]; below 0% in data set [6]. For the same compound, the inhibition at 10 µM in data set [7] was found to be 1.69%.

Regarding `COc1ccc(-c2cc(-c3cccc(OC)c3)nc(SC)n2)cc1` [Compound 16, 6-(3-Methoxyphenyl)-4-(4-methoxyphenyl)-2-(methylthio)pyrimidine], the inhibition at 10 µM is 2.91% in data set [1]; 17.3% in data set [2]; 6.06% in data set [3]; 26.9% in data set [4]; 17.9% in data set [5]; 8.85% in data set [6]. Also, the inhibition at 10 µM in data set [7] came to 6.48%.

`CCCSc1nc(-c2ccc(OC)cc2)cc(-c2cccc(OC)c2)n1` [Compound 18, 6-(3-Methoxyphenyl)-4-(4-methoxyphenyl)-2-(propylthio)pyrimidine]: the inhibition at 10 µM in data set [1] was 3.6%; in data set [2], 3.37%; in data set [3], 5.12%; in data set [4], 12.8%; in data set [5], below 0%; in data set [6] it was below 0%. Besides, in data set [7], the inhibition at 10 µM is below 0%.

`C=CCSc1nc(-c2ccc(OC)cc2)cc(-c2cccc(OC)c2)n1` [Compound 20, 2-(Allylthio)-6-(3-methoxyphenyl)-4-(4-methoxyphenyl)pyrimidine]: the inhibition at 10 µM is below 0% in data set [1]; 5.47% in data set [2]; 1.82% in data set [3]; 11.8% in data set [4]; 6.16% in data set [5]; 3.61% in data set [6]. Besides, in data set [7], the inhibition at 10 µM amounted to 0.92%.

With `COc1ccc(-c2cc(-c3ccc(Cl)cc3)nc(SC)n2)cc1OC` [Compound 23, 4-(4-Chlorophenyl)-6-(3,4-dimethoxyphenyl)-2-(methylthio)pyrimidine], the inhibition at 10 µM amounted to 8.95% in data set [1]; 33.7% in data set [2]; 18% in data set [3]; 39% in data set [4]; 20.2% in data set [5]; 17.9% in data set [6]. The inhibition at 10 µM in data set [7] stood at 3.78%.

`CCSc1nc(-c2ccc(Cl)cc2)cc(-c2ccc(OC)c(OC)c2)n1` [Compound 24, 4-(4-Chlorophenyl)-2-(ethylthio)-6-(3,4-dimethoxyphenyl)pyrimidine]: the inhibition at 10 µM in data set [1] is 11.9%; in data set [2], 30%; in data set [3] it was 19.7%; in data set [4], 41.5%; in data set [5] it was 22.8%; in data set [6] it was 19.3%. Further, the inhibition at 10 µM in data set [7] worked out at 6.83%.

Consider `COc1ccc(-c2cc(-c3ccc(Cl)cc3)nc(SC(C)C)n2)cc1OC` [Compound 26, 4-(4-Chlorophenyl)-2-(isopropylthio)-6-(3,4-dimethoxyphenyl)pyrimidine], for which the “Experimental lipophilicity RMo” value in data set [8] was determined as 6.45. Besides, the “Experimental lipophilicity Co” value in data set [8] is 86.518 and 90.64. Moreover, the inhibition at 10 µM in data set [1] is below 0%; in data set [2], 2.84%; in data set [3], 1.25%; in data set [4], 6.67%; in data set [5], 8.05%; in data set [6], 1.08%. Also, in data set [7], the inhibition at 10 µM is 4.2%.

Regarding `C=CCSc1nc(-c2ccc(Cl)cc2)cc(-c2ccc(OC)c(OC)c2)n1` [Compound 27, 2-(Allylthio)-4-(4-chlorophenyl)-6-(3,4-dimethoxyphenyl)pyrimidine], the “Experimental lipophilicity RMo” value in data set [8] is 5.79. The “Experimental lipophilicity Co” value in data set [8] was 87.9561 and 86.52. Further, the inhibition at 10 µM turned out to be 0.52% in data set [1]; 21.8% in data set [2]; 6.35% in data set [3]; 42% in data set [4]; 14.3% in data set [5]; 13.1% in data set [6]. Also, the inhibition at 10 µM in data set [7] was determined as 7.89%.

Regarding `COc1ccc(-c2cc(-c3ccc(Cl)cc3)nc(SCc3ccccc3)n2)cc1OC` [Compound 28, 2-(Benzylthio)-4-(4-chlorophenyl)-6-(3,4-dimethoxyphenyl)pyrimidine], in data set [8], the “Experimental lipophilicity RMo” value stood at 5.32. Also, in data set [8], the “Experimental lipophilicity Co” value is 91.4199 and 87.18. In addition, the inhibition at 10 µM in data set [1] worked out at 12%; in data set [2], 25.9%; in data set [3] it was 15.2%; in data set [4] it was 30.9%; in data set [5], 23.1%; in data set [6] it was 17.4%. Besides, the inhibition at 10 µM in data set [7] worked out at 8.97%.
